Assay results: PubChem BioAssay (NCI)
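All cell lines were grown in 96-well plates and treated with compound for 48 hours. GI50 = concentration required for 50% inhibition of growth. The concentration for full growth arrest is given as TGI.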

Columns and labels:
Assay in all cases: NCI tumour cell line growth inhibition, 48 h
IGROV1 ovarian = test system: IGROV1 ovarian
K-562 leukemia = test system: K-562 leukemia
MALME-3M melanoma = test system: MALME-3M melanoma
SW-620 colon = test system: SW-620 colon
NCI-H522 lung = test system: NCI-H522 lung
OVCAR-3 ovarian = test system: OVCAR-3 ovarian
A549 NSCLC = test system: A549 NSCLC
CAKI-1 renal = test system: CAKI-1 renal
KM12 colon = test system: KM12 colon
HL-60(TB) leukemia = test system: HL-60(TB) leukemia
SF-268 CNS = test system: SF-268 CNS
HCC-2998 colon = test system: HCC-2998 colon
RPMI-8226 leukemia = test system: RPMI-8226 leukemia
BT-549 breast = test system: BT-549 breast
MDA-MB-231 breast = test system: MDA-MB-231 breast
LOX IMVI melanoma = test system: LOX IMVI melanoma
TK-10 renal = test system: TK-10 renal
NCI-H23 lung = test system: NCI-H23 lung
EKVX NSCLC = test system: EKVX NSCLC
UACC-62 melanoma = test system: UACC-62 melanoma
HCT-15 colon = test system: HCT-15 colon
DU-145 prostate = test system: DU-145 prostate
SK-OV-3 ovarian = test system: SK-OV-3 ovarian
HT29 colon = test system: HT29 colon
T-47D breast = test system: T-47D breast
CCRF-CEM leukemia = test system: CCRF-CEM leukemia
SN12C renal = test system: SN12C renal
786-0 renal = test system: 786-0 renal
MDA-MB-435 = test system: MDA-MB-435
RXF 393 renal = test system: RXF 393 renal
OVCAR-4 ovarian = test system: OVCAR-4 ovarian
OVCAR-5 ovarian = test system: OVCAR-5 ovarian
HOP-62 NSCLC = test system: HOP-62 NSCLC
A498 renal = test system: A498 renal
SF-295 CNS = test system: SF-295 CNS
M14 melanoma = test system: M14 melanoma
PC-3 prostate = test system: PC-3 prostate
MCF7 breast = test system: MCF7 breast
MOLT-4 leukemia = test system: MOLT-4 leukemia
OVCAR-8 ovarian = test system: OVCAR-8 ovarian
SK-MEL-28 melanoma = test system: SK-MEL-28 melanoma
ACHN renal = test system: ACHN renal
SNB-19 CNS = test system: SNB-19 CNS
COLO 205 colon = test system: COLO 205 colon
SF-539 CNS = test system: SF-539 CNS
U251 CNS = test system: U251 CNS
UO-31 renal = test system: UO-31 renal
NCI-H460 lung = test system: NCI-H460 lung
UACC-257 melanoma = test system: UACC-257 melanoma
NCI-H226 lung = test system: NCI-H226 lung
NCI/ADR-RES ovarian = test system: NCI/ADR-RES ovarian
SK-MEL-5 melanoma = test system: SK-MEL-5 melanoma
HOP-92 NSCLC = test system: HOP-92 NSCLC
HS 578T breast = test system: HS 578T breast
SNB-75 CNS = test system: SNB-75 CNS
HCT-116 colon = test system: HCT-116 colon

## COc1cc2c(cc1OCCCOC1=C=C=C(c3ccc4c(c3)c3cc(-c5ccc(OCCCOc6cc7c(cc6OC)C(=O)N6CCC[C@H]6C=N7)cc5)ccc3n4S(=O)(=O)c3ccc(C)cc3)C=C1)N=C[C@@H]1CCCN1C2=O
IGROV1 ovarian
  GI50: 1.8 µM
  TGI: 8.69 µM
K-562 leukemia
  GI50: 1.06 µM
  TGI: > 18.6 µM
MALME-3M melanoma
  GI50: 3.26 µM
  TGI: 10.2 µM
SW-620 colon
  GI50: 1.16 µM
  TGI: 6.33 µM
NCI-H522 lung
  GI50: 3.53 µM
  TGI: 39.6 µM
OVCAR-3 ovarian
  GI50: 0.959 µM
  TGI: 2.23 µM
A549 NSCLC
  GI50: 6.7 µM
  TGI: 20.5 µM
CAKI-1 renal
  GI50: 1.29 µM
  TGI: 6.21 µM
KM12 colon
  GI50: 1.46 µM
  TGI: 4.3 µM
HL-60(TB) leukemia
  GI50: 0.826 µM
  TGI: > 11.4 µM
SF-268 CNS
  GI50: 0.934 µM
  TGI: 2.85 µM
HCC-2998 colon
  GI50: 0.731 µM
  TGI: 3.67 µM
RPMI-8226 leukemia
  GI50: 0.665 µM
  TGI: > 14.5 µM
BT-549 breast
  GI50: 1.16 µM
  TGI: 4.59 µM
MDA-MB-231 breast
  GI50: 5.31 µM
  TGI: 16 µM
LOX IMVI melanoma
  GI50: 1.49 µM
  TGI: 7.51 µM
TK-10 renal
  GI50: 1.27 µM
  TGI: 5.05 µM
NCI-H23 lung
  GI50: 2.57 µM
  TGI: 24.2 µM
EKVX NSCLC
  GI50: 9.35 µM
  TGI: 22.9 µM
UACC-62 melanoma
  GI50: 1.89 µM
  TGI: 8.76 µM
HCT-15 colon
  GI50: 7 µM
  TGI: 20.3 µM
DU-145 prostate
  GI50: 1.13 µM
  TGI: 2.73 µM
SK-OV-3 ovarian
  GI50: 5.42 µM
  TGI: 16.5 µM
HT29 colon
  GI50: 1.44 µM
  TGI: > 20.5 µM
T-47D breast
  GI50: 1.3 µM
  TGI: 19.1 µM
CCRF-CEM leukemia
  GI50: 0.19 µM
  TGI: > 50 µM
SN12C renal
  GI50: 2 µM
  TGI: 9.98 µM
786-0 renal
  GI50: 1.38 µM
  TGI: 4.12 µM
MDA-MB-435
  GI50: 2.07 µM
  TGI: 5.25 µM
RXF 393 renal
  GI50: 1.17 µM
  TGI: 2.59 µM
OVCAR-4 ovarian
  GI50: 3.58 µM
  TGI: 30.9 µM
OVCAR-5 ovarian
  GI50: 5.87 µM
  TGI: 17.8 µM
HOP-62 NSCLC
  GI50: 1.99 µM
  TGI: 8.6 µM
A498 renal
  GI50: 3.14 µM
  TGI: 9.06 µM
SF-295 CNS
  GI50: 1.14 µM
  TGI: 4.62 µM
M14 melanoma
  GI50: 1.58 µM
  TGI: 6.93 µM
PC-3 prostate
  GI50: 1.27 µM
  TGI: > 28.9 µM
MCF7 breast
  GI50: 1.23 µM
  TGI: 11.3 µM
MOLT-4 leukemia
  GI50: 0.739 µM
  TGI: > 50 µM
OVCAR-8 ovarian
  GI50: 1.54 µM
  TGI: > 17 µM
SK-MEL-28 melanoma
  GI50: 1.86 µM
  TGI: 4.97 µM
ACHN renal
  GI50: 1.75 µM
  TGI: 7.8 µM
SNB-19 CNS
  GI50: 3.5 µM
  TGI: 38.7 µM
COLO 205 colon
  GI50: 1.9 µM
  TGI: 9.78 µM
SF-539 CNS
  GI50: 1.74 µM
  TGI: 6.3 µM
U251 CNS
  GI50: 0.966 µM
  TGI: 2.87 µM
UO-31 renal
  GI50: 3.21 µM
  TGI: 11.4 µM
NCI-H460 lung
  GI50: 1.38 µM
  TGI: 7.99 µM
UACC-257 melanoma
  GI50: 6.71 µM
  TGI: 15.6 µM
NCI-H226 lung
  GI50: 4 µM
  TGI: 12.9 µM
NCI/ADR-RES ovarian
  GI50: > 26.1 µM
  TGI: > 50 µM
SK-MEL-5 melanoma
  GI50: 4.26 µM
  TGI: 11.1 µM
HOP-92 NSCLC
  GI50: 0.79 µM
  TGI: 3.37 µM
HS 578T breast
  GI50: 1.42 µM
  TGI: > 10.8 µM
SNB-75 CNS
  GI50: 1.03 µM
  TGI: 5.33 µM
HCT-116 colon
  GI50: 1.62 µM
  TGI: 7.05 µM
